# Reference: patent US9067897B2, “2,4-Diaminoquinazolines for spinal muscular atrophy” (Families of Spinal Muscular Atrophy, priority 2004, dated 2015)
# pEC50: −log10 of the molar value. Counter-ions that a name gives are not always drawn.
# Test system: SMN2 promoter
# Assay: SMN2 promoter assay (β-lactamase reporter) in NSC-34 cells
# Assay type: cell-based, mouse
# Details: Mus musculus, SMN2 promoter driving β-lactamase, 12 point dose curve, average of 3-6 dose curve experiments
# Source text: All compounds were screened using an in vitro based SMN2 promoter assay. We used NSC-34 cells, a hybrid cell line between mouse spinal cord cells and mouse neuroblastoma cells. NSC-34 cells harbor an expression plasmid containing a 3.4 kb promoter fragment of the SMN2 gene driving β-lactamase expression.
# […] […] CCF2-AM diffuses across the plasma membrane and is converted into an active β-lactamase substrate by cytoplasmic esterase. […] The fold induction is proportional to the extent of β-lactamase produced and in turn proportional to SMN2 promoter activation for a given compound relative to vehicle (DMSO) control. […] These values are used to rank activities of the compounds and derive structure activity relationship.
row,Compound,pEC50
1,"Nc1nc(N)c2c(OCC3CCC3)cccc2n1 [Example 14, 5-(Cyclobutylmethoxy)quinazoline-2,4-diamine]",> 6.00
2,"COc1ccc(Cc2cccc3nc(N)nc(N)c23)cc1 [Example 26, 5-(4-Methoxybenzyl)Quinazoline-2,4-Diamine]",> 6.00
3,"CC1(COc2cccc3nc(N)nc(N)c23)COC1 [Example 127, 5-(3-Methyl-oxetan-3-ylmethoxy)-quinazoline-2,4-diamine]",> 6.00
4,"Nc1nc(N)c2c(OCc3ccc(F)cc3)cccc2n1 [Example 97, 5-(4-Fluorobenzyloxy)-quinazoline-2,4-diamine]",> 6.00
5,"COc1cccc(C(C)Oc2cccc3nc(N)nc(N)c23)c1 (centres unmarked) [Example 66, 5-[1-(3-Methoxyphenyl)-ethoxy]-quinazoline-2,4-diamine]",> 6.00
6,"Nc1nc(N)c2c(OCC3CC4CC3C(O)C4O)cccc2n1 (centres unmarked) [Example 131, 5-(2,4-Diamino-quinazolin-5-yloxymethyl)-bicyclo[2.2.1]heptane-2,3-diol]",> 6.00
7,"Nc1nc(N)c2c(Cc3ccccc3)cccc2n1 [Example 24, 5-Benzylquinazoline-2,4-diamine]",> 6.00
8,"Nc1nc(N)c2c(OC3(c4cccc(Cl)c4)CC3)cccc2n1 [Example 146, 5-[1-(3-Chlorophenyl)cyclopropoxy]quinazoline-2,4-diamine]",> 6.00
9,"COC(COc1cccc2nc(N)nc(N)c12)c1ccc(Cl)cc1 (centres unmarked) [Example 165, 5-[2-(4-Chlorophenyl)-2-methoxyethoxy]quinazoline-2,4-diamine]",> 6.00
10,"C=CCOCCOc1cccc2nc(N)nc(N)c12 [Example 19, 5-(2-Allyloxyethoxy)quinazoline-2,4-diamine]",> 6.00
11,"Nc1nc(N)c2c(OCC(O)c3cccc(Cl)c3)cccc2n1 (centres unmarked) [Example 161, 1-(3-Chlorophenyl)-2-(2,4-diaminoquinazolin-5-yloxy)ethanol]",> 6.00
12,"Nc1nc(N)c2c(OCC3CCN(C(=O)c4ccc(Cl)cc4)CC3)cccc2n1 [Example 123, (4-Chlorophenyl)-[4-(2,4-diamino-quinazolin-5-yloxymethyl)-piperidin-1-yl]-methanone]",> 6.00
13,"C[C@@H](Oc1cccc2nc(N)nc(N)c12)c1cccc2ccccc12 [Example 110, 5-((R)-1-Naphthalen-1-yl-ethoxy)-quinazoline-2,4-diamine]",5.30 to 6.00
14,"Cc1cc(Cl)ccc1OCc1cccc2nc(N)nc(N)c12 [Example 139, 5-(4-Chloro-2-methylphenoxymethyl)quinazoline-2,4-diamine]",> 6.00
15,"Cc1ccc(C#Cc2cccc3nc(N)nc(N)c23)cc1 [Example 30, 5-p-Tolylethynylquinazoline-2,4-diamine]",> 6.00
16,"Nc1nc(N)c2c(OCC(O)c3ccc(Cl)cc3)cccc2n1 (centres unmarked) [Example 160, 1-(4-Chlorophenyl)-2-(2,4-diaminoquinazolin-5-yloxy)ethanol]",> 6.00
17,"Nc1nc(N)c2c(OCc3cccc4cccnc34)cccc2n1 [Example 113, 5-(Quinolin-8-ylmethoxy)-quinazoline-2,4-diamine]",> 6.00
18,"CCC(Oc1cccc2nc(N)nc(N)c12)C1CCCCC1 (centres unmarked) [Example 129, 5-(1-Cyclohexylpropoxy)-quinazoline-2,4-diamine]",> 6.00
19,"Nc1nc(N)c2c(OC(CO)c3ccc(Cl)cc3)cccc2n1 (centres unmarked) [Example 164, 2-(4-Chlorophenyl)-2-(2,4-diaminoquinazolin-5-yloxy)ethanol hydrochloride]",> 6.00
20,"Nc1nc(N)c2c(OCc3ccccc3F)cccc2n1 [Example 96, 5-(2-Fluorobenzyloxy)-quinazoline-2,4-diamine]",> 6.00
21,"COCOCC(Oc1cccc2nc(N)nc(N)c12)c1ccc2c(c1)OCO2 (centres unmarked) [Example 156, 5-(1-Benzo[1,3]dioxol-5-yl-2-methoxymethoxyethoxy)quinazoline-2,4-diamine]",> 6.00
22,"COc1ccc(Cl)cc1COc1cccc2nc(N)nc(N)c12 [Example 88, 5-(5-Chloro-2-methoxybenzyloxy)quinazoline-2,4-diamine]",> 6.00
23,"C[C@H](Oc1cccc2nc(N)nc(N)c12)c1ccccc1 [Example 42, 5-((S)-1-Phenylethoxy)quinazoline-2,4-diamine]",> 6.00
24,"CC(Oc1cccc2nc(N)nc(N)c12)C1CCCC1 (centres unmarked) [Example 120, 5-(1-Cyclopentyl-ethoxy)-quinazoline-2,4-diamine]",> 6.00
25,"Cc1cccc(COc2cccc3nc(N)nc(N)c23)c1 [Example 10, 5-(3-Methylbenzyloxy)quinazoline-2,4-diamine]",> 6.00
26,"Nc1nc(N)c2c(OC3CCc4ccc(F)cc43)cccc2n1 (centres unmarked) [Example 81, 5-(6-Fluoroindan-1-yloxy)-quinazoline-2,4-diamine]",> 6.00

row,Compound,pEC50
1,"Nc1nc(N)c2c(OC3COc4ccc(Cl)cc43)cccc2n1 (centres unmarked) [Example 128, 5-(5-Chloro-2,3-dihydro-benzofuran-3-yloxy)-quinazoline-2,4-diamine]",> 6.00
2,"COc1ccc(COc2cccc3nc(N)nc(N)c23)cc1 [Example 144, 5-(4-Methoxybenzyloxy)quinazoline-2,4-diamine]",> 6.00
3,"COCC(Oc1cccc2nc(N)nc(N)c12)c1ccc(Cl)cc1 (centres unmarked) [Example 114, 5-[1-(4-Chlorophenyl)-2-methoxyethoxy]-quinazoline-2,4-diamine]",> 6.00
4,"Nc1nc(N)c2c(OCc3ccccc3Cl)cccc2n1 [Example 6, 5-(2-Chlorobenzyloxy)quinazoline-2,4-diamine]",> 6.00
5,"Nc1nc(N)c2c(O[C@@H]3C[C@H]4CC[C@@H]3C4)cccc2n1 [Example 118, 5-((1R,2R,4S)-Bicyclo[2.2.1]hept-2-yloxy)quinazoline-2,4-diamine]",> 6.00
6,"Nc1nc(N)c2c(OCc3cnc4ccccc4c3)cccc2n1 [Example 112, 5-(Quinolin-3-ylmethoxy)-quinazoline-2,4-diamine]",> 6.00
7,"Nc1nc(N)c2c(O[C@H]3CCc4ccc(Cl)cc43)cccc2n1 [Example 149, 5-((S)-6-Chloroindan-1-yloxy)quinazoline-2,4-diamine]",> 6.00
8,"CC1(C)[C@H]2CC[C@H](COc3cccc4nc(N)nc(N)c34)[C@@H]1C2 [Example 152, 5-((1S,2S,5S)-6,6-Dimethylbicyclo[3.1.1]hept-2-ylmethoxy) quinazoline-2,4-diamine]",> 6.00
9,"Nc1nc(N)c2c(OCc3cccc(C(F)(F)F)c3)cccc2n1 [Example 98, 5-(3-Trifluoromethylbenzyloxy)-quinazoline-2,4-diamine]",> 6.00
10,"Nc1nc(N)c2c(OC(CO)c3ccc4c(c3)OCO4)cccc2n1 (centres unmarked) [Example 170, 2-Benzo[1,3]dioxol-5-yl-2-(2,4-diaminoquinazolin-5-yloxy)ethanol hydrochloride]",> 6.00
11,"CC(Oc1cccc2nc(N)nc(N)c12)c1ccncc1 (centres unmarked) [Example 48, 5-(1-Pyridin-4-ylethoxy)quinazoline-2,4-diamine]",> 6.00
12,"CC(C)(C)C(Oc1cccc2nc(N)nc(N)c12)c1ccc(Cl)cc1 (centres unmarked) [Example 51, 5-[1-(4-Chlorophenyl)-2,2-dimethylpropoxy]quinazoline-2,4-diamine]",5.00 to 5.30
13,"C[C@@H](Oc1cccc2nc(N)nc(N)c12)c1cccc(Cl)c1 [Example 92, 5-[(R)-1-(3-Chlorophenyl)ethoxyl]quinazolin-2,4-diamine]",> 6.00
14,"COCCOc1cccc2nc(N)nc(N)c12 [Example 15, 5-(2-Methoxyethoxy)quinazoline-2,4-diamine]",> 6.00
15,"Nc1nc(N)c2c(OCC3CC=CCC3)cccc2n1 (centres unmarked) [Example 13, 5-(Cyclohex-3-enylmethoxy)quinazoline-2,4-diamine]",> 6.00
16,"Nc1nc(N)c2c(S(=O)(=O)c3ccc(Cl)cc3)cccc2n1 [Example 31, 5-(4-Chlorobenzenesulfonyl)quinazoline-2,4-diamine]",5.30 to 6.00
17,"Nc1nc(N)c2c(OCC(CO)c3ccc(Cl)cc3)cccc2n1 (centres unmarked) [Example 69, 2-(4-Chlorophenyl)-3-(2,4-diaminoquinazolin-5-yloxy)-propan-1-ol hydrochloride]",> 6.00
18,"CCC(Oc1cccc2nc(N)nc(N)c12)c1ccc(Cl)cc1 (centres unmarked) [Example 50, 5-[1-(4-Chlorophenyl)propoxy]quinazoline-2,4-diamine]",> 6.00
19,"Nc1nc(N)c2c(OCc3ccsc3)cccc2n1 [Example 47, 5-(Thiophen-3-ylmethoxy)quinazoline-2,4-diamine]",> 6.00
20,"Nc1nc(N)c2c(SCc3ccc(Cl)cc3)cccc2n1 [Example 29, 5-(4-Chlorobenzylsulfanyl)quinazoline-2,4-diamine]",> 6.00
21,"Cc1ccc(OCc2cccc3nc(N)nc(N)c23)cc1 [Example 44, 5-p-Tolyloxymethylquinazoline-2,4-diamine]",> 6.00
22,"CC(=O)Nc1nc(NC(C)=O)c2c(OCc3ccc(Cl)cc3)cccc2n1 [Example 32, N-[2-Acetylamino-5-(4-chlorobenzyloxy)quinazolin-4-yl]acetamide]",5.00 to 5.30
23,"Nc1nc(N)c2c(OCc3ccc(F)c(F)c3)cccc2n1 [Example 87, 5-(3,4-Difluorobenzyloxy)quinazoline-2,4-diamine]",> 6.00
24,"CC(Oc1cccc2nc(N)nc(N)c12)c1ccccc1C(F)(F)F (centres unmarked) [Example 94, 5-[1-(2-Trifluoromethylphenyl)-ethoxy]-quinazoline-2,4-diamine]",4.70 to 5.00
25,"Nc1nc(N)c2c(OCCCc3ccc(Cl)cc3)cccc2n1 [Example 27, 5-[3-(4-Chlorophenyl)propoxy]quinazoline-2,4-diamine]",> 6.00

# Same assay, conditions: SMN2 promoter driving β-lactamase, 12 point dose curve, average of 3-6 dose curve experiments
row,Compound,pEC50
1,"5-[1-(4-fluorophenyl)-1-methyl-ethoxy]-quinazoline-2,4-diamine [Example 101]",> 6.00
2,"5-(3-Fluorobenzyloxy)quinazoline-2,4-diamine [Example 102]",> 6.00
